This note sets out measurements from patent US20230416199A1, “INHIBITORS OF AMINO ACID TRANSPORT” (ICAHN SCHOOL OF MEDICINE AT MOUNT SINAI, priority 2020, published 2023).

Holding throughout (assay type): cell-based
The target of one assay is T1, hASCT1 (Homo sapiens, UniProt P43007).
T1 construct: expressed in transfected cells; host or cells: HEK293 (ATCC CRL-11268), transient transfection
T1 sequence (P43007 1-532): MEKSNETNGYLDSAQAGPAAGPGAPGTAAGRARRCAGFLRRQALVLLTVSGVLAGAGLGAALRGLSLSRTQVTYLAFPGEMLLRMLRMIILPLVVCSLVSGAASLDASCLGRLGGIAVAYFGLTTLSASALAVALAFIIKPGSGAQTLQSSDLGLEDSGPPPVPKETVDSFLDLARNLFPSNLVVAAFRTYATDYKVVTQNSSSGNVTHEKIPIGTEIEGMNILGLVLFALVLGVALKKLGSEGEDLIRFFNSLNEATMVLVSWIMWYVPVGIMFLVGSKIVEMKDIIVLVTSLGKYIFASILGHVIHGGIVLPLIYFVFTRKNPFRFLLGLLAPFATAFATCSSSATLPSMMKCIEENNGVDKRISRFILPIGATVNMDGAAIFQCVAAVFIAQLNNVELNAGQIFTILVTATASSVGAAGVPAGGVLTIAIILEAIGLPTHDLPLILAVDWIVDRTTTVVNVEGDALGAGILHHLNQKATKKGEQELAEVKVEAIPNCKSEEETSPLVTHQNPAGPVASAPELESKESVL
Kind of assay: Electrophysiology (whole-cell current recording) of transfected HEK293 cells, hASCT1. The note with it: Table 3, dihydroxyproline derivatives; read-out: Ki All DNA: hASCT1. How it is done: (§1) Human embryonic kidney 293 (HEK293, ATCC CRL-11268) cells were cultured in DMEM media supplemented with 10% (v v) fetal bovine serum (FBS), 2 mM glutamine, 1% penicillin streptomycin solution, 1 mM sodium pyruvate and non-essential amino acids. Cells were maintained at 37° C. in a fully humidified atmosphere containing 5% CO2. rASCT2, hASCT2, hASCT1, EAAT1, EAAT2, EAAC1, EAAT5 and YFP complementary DNAs were each used to transiently transfect HEK293 using POLYPLUS Jet-prime transfection reagent. Cells were analyzed using electrophysiological techniques 24-40 hours after transfection.
(§2) Stock solutions of inhibitor was prepared in dimethyl sulfoxide (DMSO) up to 100 mM. Dilutions to working concentrations were made using external buffer. […] For rASCT2, hASCT2 and hASCT1, external buffer contained 140 mM NaCl, 2 mM MgCl2, 2 mM CaCl2), and 10 mM HEPES, pH 7.40 while internal pipette solution comprised of 130 mM NaSCN, 2 mM MgCl2, 10 mM EGTA, 10 mM HEPES and 10 mM alanine, pH 7.40. For specificity experiments with EAAT1, EAAT2, EAAC1 and EAAT5, internal solution contained 10 mM glutamate instead of alanine. Compounds were applied to HEK293 cells expressing DNA of interest suspended from a current recording electrode in whole cell configuration through a rapid solution exchange device. Cells are immersed in external buffer bath used to dissolve the inhibitors. The open pipette resistance was between 3 and 6 MΩ. Series resistance was not compensated in these experiments due to relatively small currents. Currents traces were recorded using an Adams and List EPC7 amplifier and digitized using a Molecular Devices Digidata A/D converter.
(§3) Linear and nonlinear curve fitting of the experimental data were analyzed using MicroCal Origin software. Nonlinear dose-response relationships were fitted with a Michaelis-Menten-like equation to obtain apparent Ki values in the absence of substrate (see TABLE 2 for Ki values). The figures show representative current traces and dose-response curves for hACST2 and rASCT2, used to obtain Ki values in TABLE 2 for compound SN 40. At least four experiments were performed with at least three different cells. Error bars in all graphs, e.g., in FIG. 1B and FIG. 1C and tables (Ki values) represent mean±SD.

For assay [1], the target named is T2, hASCT2 (Homo sapiens, UniProt Q15758).
T2 construct: expressed in transfected cells; host or cells: HEK293 (ATCC CRL-11268), transient transfection
T2 sequence (Q15758 1-541): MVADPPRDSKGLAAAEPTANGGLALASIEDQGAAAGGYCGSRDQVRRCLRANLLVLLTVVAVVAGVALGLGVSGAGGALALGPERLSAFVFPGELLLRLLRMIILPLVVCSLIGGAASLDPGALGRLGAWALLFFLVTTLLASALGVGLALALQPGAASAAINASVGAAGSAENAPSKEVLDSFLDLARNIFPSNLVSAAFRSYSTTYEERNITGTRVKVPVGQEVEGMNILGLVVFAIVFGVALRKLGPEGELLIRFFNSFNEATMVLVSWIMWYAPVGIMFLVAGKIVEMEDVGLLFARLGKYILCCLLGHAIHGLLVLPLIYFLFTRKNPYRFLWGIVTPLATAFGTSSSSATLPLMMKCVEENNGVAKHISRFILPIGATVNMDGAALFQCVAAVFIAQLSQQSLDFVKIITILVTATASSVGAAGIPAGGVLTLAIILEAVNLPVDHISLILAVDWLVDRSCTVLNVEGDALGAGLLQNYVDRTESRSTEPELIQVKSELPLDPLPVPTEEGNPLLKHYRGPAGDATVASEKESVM
Kind of assay: Competition experiment with alanine, hASCT2. The following applies: first entry of the cell; for Ki: read-out: Competition Expt (h/rASCT2 Ki): hASCT2 Ki.

The target of assay [2] is T2, hASCT2. Kind of assay: Electrophysiology (whole-cell current recording) of transfected HEK293 cells, hASCT2. The note with it: Table 3, dihydroxyproline derivatives; read-out: Ki All DNA: hASCT2. As for the experimental part: as §1, §2, §3
For assay [3], the target named is T3, rASCT2 (Rattus norvegicus, UniProt D3ZJ25).
T3 construct: expressed in transfected cells; host or cells: HEK293 (ATCC CRL-11268), transient transfection
T3 sequence (D3ZJ25 1-555): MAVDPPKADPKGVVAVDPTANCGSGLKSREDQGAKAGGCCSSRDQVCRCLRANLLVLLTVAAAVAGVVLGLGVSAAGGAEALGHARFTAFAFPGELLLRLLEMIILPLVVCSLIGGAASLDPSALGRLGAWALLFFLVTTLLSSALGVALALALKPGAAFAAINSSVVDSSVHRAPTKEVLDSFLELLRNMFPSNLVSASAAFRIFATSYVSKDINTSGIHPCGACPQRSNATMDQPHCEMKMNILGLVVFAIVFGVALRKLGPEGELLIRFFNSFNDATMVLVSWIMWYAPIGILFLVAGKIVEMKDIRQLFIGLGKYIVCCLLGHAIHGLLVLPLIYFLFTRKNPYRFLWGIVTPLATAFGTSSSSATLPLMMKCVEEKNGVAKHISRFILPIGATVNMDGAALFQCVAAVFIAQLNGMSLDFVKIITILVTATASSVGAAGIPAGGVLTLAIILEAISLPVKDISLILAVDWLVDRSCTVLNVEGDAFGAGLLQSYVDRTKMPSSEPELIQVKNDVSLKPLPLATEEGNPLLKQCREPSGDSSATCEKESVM
As to the kind of experiment: Competition experiment with alanine, rASCT2. The note with it: second entry of the cell; for Ki: read-out: Competition Expt (h/rASCT2 Ki): rASCT2 Ki.

Assay [4] addresses T3, rASCT2. Kind of assay: Electrophysiology (whole-cell current recording) of transfected HEK293 cells, rASCT2. The following applies: Table 3, dihydroxyproline derivatives; read-out: Ki All DNA: rASCT2. As for the experimental part: as §1, §2, §3

Consider `O=C(OC[C@@]1(O)CN[C@H](C(=O)O)C1)c1ccc(-c2ccc(C(F)(F)F)cc2)cc1` [SN59], for which the Ki at hASCT1 came to 0.002 µM; on hASCT2 [1] (1 mM ala), 19.4 µM; on hASCT2 [2], 3.24 µM; on rASCT2 [3] (1 mM ala), 0.15 µM; at rASCT2 [4], 0.005 µM. For the same molecule, at hASCT2 [1] (1 mM ala), the “Competition Expt % block (given as a decimal): hASCT2” value was “full”. Moreover, the “Competition Expt % block (given as a decimal): rASCT2” value on rASCT2 [3] (1 mM ala) is recorded as “full”.

For the molecule `O=C(OC[C@]1(O)CN[C@H](C(=O)O)C1)c1ccc(-c2ccccc2)cc1` [SN65], the Ki amounted to 59.2 µM on hASCT1; 52.2 µM on hASCT2 [1] (0.5 mM ala); 30.5 µM at hASCT2 [2]; 170 µM on rASCT2 [3] (0.5 mM ala); 25.8 µM on rASCT2 [4]. The “Competition Expt % block (given as a decimal): hASCT2” value at hASCT2 [1] (0.5 mM ala, decimal fraction) is 0.8. In addition, the “Competition Expt % block (given as a decimal): rASCT2” value at rASCT2 [3] (0.5 mM ala, decimal fraction) turned out to be 0.4.
